Results reported in PMC12282101, “Heat shock protein 90 chaperone activity is required for hepatitis A virus replication” (Journal of Virology, 2025).

How the values were obtained:
18f-NLuc reporter virus = test: microbe, parasite or virus in culture; type: cell-based, Hepatitis A virus; conditions: for activity at 10 µM: Hepatovirus A, Huh-7.5.1, 72 h, read-out: Normalized HAV production
Huh-7.5.1 cells = test: Cell viability in the chemical screen (Cell TiterGlo); conditions: 10 µM compound, 72 h

| SMILES | Normalized HAV production (18f-NLuc reporter virus) | activity at 10 µM (18f-NLuc reporter virus) | Viability Percent DMSO (Huh-7.5.1 cells) |
| --- | --- | --- | --- |
| COC(=O)C1=C(C)NC(c2ncc(F)cc2F)=NC1c1ccc(F)cc1Cl (racemic) [Bay 41-4109 racemate] | 0.84 | – | – |
| CN(C)C[C@H](O)Cn1c2ccc(Br)cc2c2cc(Br)ccc21 (racemic) [Wiskostatin] | – | 101% | 92 Percent DMSO |
| O=C(O[C@@H]1Cc2c(O)cc(O)cc2O[C@@H]1c1cc(O)c(O)c(O)c1)c1cc(O)c(O)c(O)c1 [(-)-Epigallocatechin Gallate] | – | 105% | 125 Percent DMSO |
| COc1cc2ncnc(Nc3cccc(Cl)c3)c2cc1OC [AG-1478] | 0.51 | – | 164 Percent DMSO |
| Nc1nc(NC2CC2)c2ncn([C@H]3C=C[C@@H](CO)C3)c2n1 [Abacavir] | – | 87% | 119 Percent DMSO |
| Nc1nc2c(ncn2COCCO)c(=O)[nH]1 [Aciclovir] | – | 99% | 110 Percent DMSO |
| CC(C)(C)C(=O)OCOP(=O)(COCCn1cnc2c(N)ncnc21)OCOC(=O)C(C)(C)C [Adefovir dipivoxil] | – | 138% | 74 Percent DMSO |
| Nc1ncnc2c1ncn2[C@@H]1O[C@H](COP(=O)(O)O)[C@@H](O)[C@H]1O.O [Adenosine 5'-monophosphate monohydrate] | – | 93% | 115 Percent DMSO |
| O=C1c2cccc(O)c2C(=O)c2c(O)cc(CO)cc21 [Aloe-emodin] | – | 118% | 90 Percent DMSO |
| Cc1cccc(C)c1N(CC(=O)Nc1ccc(-c2ncon2)cc1)C(=O)C1CCS(=O)(=O)CC1 [Amenamevir] | – | 109% | 116 Percent DMSO |
| CC1(C)S[C@@H]2[C@H](NC(=O)[C@H](N)c3ccccc3)C(=O)N2[C@H]1C(=O)O [Ampicillin Trihydrate] | – | 76% | 116 Percent DMSO |
| CC(C)CN(C[C@@H](O)[C@H](Cc1ccccc1)NC(=O)O[C@H]1CCOC1)S(=O)(=O)c1ccc(N)cc1 [Amprenavir] | – | 91% | 121 Percent DMSO |
| C=C1CC[C@@H]2[C@](C)(CO)[C@H](O)CC[C@@]2(C)[C@@H]1C/C=C1/C(=O)OC[C@H]1O [Andrographolide] | – | 86% | 106 Percent DMSO |
| CCOC(=O)c1c(CSc2ccccc2)n(C)c2cc(Br)c(O)c(CN(C)C)c12.Cl [Arbidol hydrochloride] | 0.78 | – | 105 Percent DMSO |
| C[C@@H]1CC[C@H]2[C@@H](C)C(=O)O[C@@H]3O[C@@]4(C)CC[C@@H]1[C@]32OO4 [Artemisinin] | – | 76% | 101 Percent DMSO |
| COC(=O)N[C@H](C(=O)N[C@@H](Cc1ccccc1)[C@@H](O)CN(Cc1ccc(-c2ccccn2)cc1)NC(=O)[C@@H](NC(=O)OC)C(C)(C)C)C(C)(C)C [Atazanavir] | – | 96% | 130 Percent DMSO |
| CC1(C)S[C@@H]2[C@H](NC(=O)[C@H](NC(=O)N3CCNC3=O)c3ccccc3)C(=O)N2[C@H]1C(=O)O [Azlocillin sodium] | – | 132% | 98 Percent DMSO |
| O=C(O)[C@H]1O[C@@H](Oc2cc3oc(-c4ccccc4)cc(=O)c3c(O)c2O)[C@H](O)[C@@H](O)[C@@H]1O [Baicalin] | – | 81% | 114 Percent DMSO |
| OC[C@H]1O[C@@H]2O[C@H]3[C@H](O)[C@@H](O)[C@@H](O[C@H]4[C@H](O)[C@@H](O)[C@@H](O[C@H]5[C@H](O)[C@@H](O)[C@@H](O[C@H]6[C@H](O)[C@@H](O)[C@@H](O[C@H]7[C@H](O)[C@@H](O)[C@@H](O[C@H]8[C@H](O)[C@@H](O)[C@@H](O[C@H]1[C@H](O)[C@H]2O)O[C@@H]8CO)O[C@@H]7CO)O[C@@H]6CO)O[C@@H]5CO)O[C@@H]4CO)O[C@@H]3CO [Beta-Cyclodextrin] | – | 72% | 117 Percent DMSO |
| C=C(C)[C@@H]1CC[C@]2(CO)CC[C@]3(C)[C@H](CC[C@@H]4[C@@]5(C)CC[C@H](O)C(C)(C)[C@@H]5CC[C@]43C)[C@@H]12 [Betulin] | – | 119% | 123 Percent DMSO |
| C=C(C)[C@@H]1CC[C@]2(C(=O)O)CC[C@]3(C)[C@H](CC[C@@H]4[C@@]5(C)CC[C@H](O)C(C)(C)[C@@H]5CC[C@]43C)[C@@H]12 [Betulinic acid] | – | 75% | 116 Percent DMSO |
| COC(=O)c1cc(OC)c2c(c1-c1c(CO)cc(OC)c3c1OCO3)OCO2 [Bicyclol] | – | 105% | 115 Percent DMSO |
| O=c1[nH]c(=O)n([C@H]2C[C@H](O)[C@@H](CO)O2)cc1/C=C/Br [Brivudine] | – | 94% | 110 Percent DMSO |
| C[C@H]1CO[C@@H]2Cn3cc(C(=O)NCc4ccc(F)cc4F)c(=O)c(O)c3C(=O)N12 [Cabotegravir] | – | 49% | 170 Percent DMSO |
| OC[C@H]1O[C@@H](O[C@@H]2OC=C[C@H]3[C@H](O)[C@@H]4O[C@]4(CO)[C@@H]23)[C@H](O)[C@@H](O)[C@@H]1O [Catalpol] | – | 98% | 128 Percent DMSO |
| C=CC1=C(C(=O)O)N2C(=O)[C@@H](NC(=O)/C(=N\O)c3csc(N)n3)[C@H]2SC1 [Cefdinir] | – | 97% | 101 Percent DMSO |
